According to the NIST ThermoML archive (doi:10.1021/je900998f):
Numbers after ± are expanded uncertainties.

Conditions: Liquid; for mass density / viscosity: 298.15 K; for mass density: 101.33 kPa, Vibrating tube method

Row | mass density [kg/m3] | viscosity [mPa·s] | viscosity (Capillary tube (Ostwald / Ubbelohde) method) [mPa·s] | vapor or sublimation pressure (351.44 K, Ebulliometric method (Recirculating still)) [kPa] | SMILES
1 | 1222.26 ± 0.42 | 161.4 ± 8.4 | – | – | CCOS(=O)(=O)[O-].CC[n+]1cccc(C)c1 [1-ethyl-3-methylpyridinium ethylsulfate]
2 | 785.46 ± 0.12 | – | 1.082 ± 0.073 | 101.33 ± 0.1 | CCO [ethanol]
